Assay results published in ChEMBL document CHEMBL5329177, “De novo design of a stapled peptide targeting SARS-CoV-2 spike protein receptor-binding domain” (RSC Med Chem, 2023).
Starred links: 1 amine or outer side, 2 acyl side, 3 side chain; linkers in the order of their positions; H or OH if unused. Positions of bridges follow the written chain, without caps; N, C: chain ends. Non-standard residues stand in square brackets, D forms with d. Residues, ends and D or L forms follow the SMILES beside them. X1 = C[C@@](CC=[*:3])(N[*:1])C(=O)[*:2]

System: Vero C1008
Assay: Cytotoxicity against African green monkey Vero E6 cells assessed as inhibition of cell growth measured after 48 hrs by MTT assay
Assay type: toxicity, cell-based
Conditions: chlorocebus sabaeus, vero c1008, 48 h, dose 0.05-50 µM

SMILES: CSCC[C@@H]1NC(=O)[C@H](CC(N)=O)NC(=O)[C@@H]2CC(=O)NCCCC[C@H](NC(=O)[C@H](Cc3c[nH]c4ccccc34)NC(=O)[C@@H](NC(=O)[C@H](CCCCN)NC(=O)[C@H](Cc3ccc(O)cc3)NC(=O)[C@H](CC(C)C)NC(=O)[C@H](Cc3c[nH]c4ccccc34)NC(=O)[C@H](CCC(=O)O)NC(=O)[C@@H](NC(=O)CNC(C)=O)[C@@H](C)O)C(C)C)C(=O)N[C@@H](C)C(=O)N[C@@H](Cc3ccccc3)C(=O)N[C@@](C)(C/C=C/C[C@@](C)(C(=O)O)NC1=O)C(=O)N2 (Ac-GTEWLYKVWKAF[X1]DNM[X1]-OH; lactam 10-14; staple (E) 13-17)
- Activity: Dose-Dependent Effect
